Data taken from US20160044917A1, “LOW ENVIRONMENTAL IMPACT PESTICIDE MADE FROM "GRAS" INGREDIENTS FOR USE AGAINST COQUI FROGS AND OTHER SPECIES” (priority 2015, published 2016).
Where two headings read alike, the source gives them in different places.

Tests used:
[1] = system: common plants; settings: citric acid 25%, three days after treatment, cited from earlier work
[2] = system: human skin; assay: Contact of acid solution with human skin or hand; format: in vivo; settings: solution with a pH of less than 0.5
Method: As discussed above, AGIIS has relatively less dehydrating properties (such as charring sucrose) as compared to the saturated solution of CaSO4 in the same concentration of H2SO4. […] AGIIS has low volatility at room temperature and pressure.
In view of the need to find new phytogenic friendly alternatives for controlling the spread of Coqui frogs, a commercially available food sanitation product (i.e. Acidic Calcium Sulfate (“ACS”) was evaluated for inclusion in the current inventory of chemicals that can be applied as sprays. ACS and functional equivalents thereof are made from ingredients that are generally regarded as safe (“GRAS”), and is approved for use in food by the FDA and USDA. Although not wanting to be bound by theory, the efficacy of this product stems from its very unique characteristic of being able to donate a very high activity of hydrogen ions (low pH), while at the same time, having very low oxidative effects on plants and human skin. For example, a five (5) normal concentration of ACS having a pH of approximately zero may be held in the human hand without harm to the person holding the acid. In contrast, when very small amounts are applied to the skin of Coqui frogs it is quickly absorbed and respiration is immediately impaired with lethal results. […]

[3] = system: frogs; assay: Frog killing time with different concentrations; format: in vivo; settings: concentrations from about 5% to about 10%
Method: Additionally, this formulation killed 10 out of 10 frogs within about 15 minutes. More over, concentrations using proprionic acid ranging from about 5% to about 10% were lethal to the frogs in the test group.

In the case of `O=C(O)CC(O)(CC(=O)O)C(=O)O` [citric acid], the phytotoxicity rating ([1]; bromeliad) is given as “moderate”, the phytotoxicity rating ([1]; calathea) is given as “severe” and the phytotoxicity rating ([1]; dendrobium orchid) is given as “moderate”. For the same molecule, the phytotoxicity rating ([1]; eggplants) was “severe”, the phytotoxicity rating ([1]; guava plant) was “moderate” and the phytotoxicity rating ([1]; leatherleaf fern) was “moderate”. For the same molecule, the phytotoxicity rating ([1]; passion fruit) was “slight”, the phytotoxicity rating ([1]; payaya) was “slight” and the phytotoxicity rating ([1]; streptocarpus) was “severe”.
In the case of `O=S(=O)(O)O` [sulfuric acid], the “effect on hand put into the solution” value [2] is reported as “an irritation would occur”.
With `CCC(=O)O` [propionic acid] the “lethality to the frogs in the test group” value [3] was “lethal”.
